One series has as its target T1, α-chymotrypsin (Bos taurus, UniProt P00766).
T1 construct: purchased Sigma
The experiment in a line: Degradation of Aptides by protease, SDS-PAGE. It counts as in vitro ADME. The following applies: 10 unit α-chymotrypsin, 100 μg peptide, FIG. 3. How it is done: (§1) Degradation levels of the L-Aptide1EDB and D-Aptide1EDB were measured using proteases, α-chymotrypsin and trypsin (Sigma). The proteases of 10 unit were added to 100 μg peptides, followed by the reaction for 30, 60, 120 and 720 min, and the reaction was blocked by adding SDS sample buffer (Invitrogen). Subsequently, results for the peptide degradation were obtained from SDS-PAGE.

The subject of a further series is trypsin. As to the kind of experiment: Degradation of Aptides by protease, SDS-PAGE. It counts as in vitro ADME. To be noted: 10 unit trypsin, 100 μg peptide, FIG. 3. The procedure: as §1
Series [1] concerns the target T2, fibronectin EDB (Homo sapiens, UniProt P02751).
T2 construct: Biotin-EDB of 2000 RU was immobilized on streptavidin SA chip
The experiment in a line: BIAcore X (SPR) affinity for fibronectin EDB. It counts as binding. To be noted: biotin-EDB on SA chip; for Kd / koff (dissociation rate constant): PBS pH 7.4; for kon: PBS pH 7.4, read-out: ka. How it is done:
(§2) To investigate whether the activity is maintained where Aptamer-Like Peptides specifically binding to fibronectin EDB, i.e., L-Aptide1EDB are converted into D- and Retro inverso (RI)-form, their affinity to a target was measured. Firstly, 3 peptides, L-Aptide1EDB ([…], all L-amino acids, SEQ ID NO:21), D-Aptide1EDB ([…], all D-amino acids, SEQ ID NO:21) and RI-Aptide1EDB ([…], all D-amino acids), were synthesized by Anigen Inc. (Korea). Their affinity for a target was determined using BIAcore X (Biacore AB, Uppsala, Sweden). Biotin-EDB of 2000 RU was immobilized on streptavidin SA chip (Biacore). A PBS (pH 7.4) was used as a running buffer, a flow rate was 30 μl/min, and the affinity was determined with BIAevaluation software (Biacore AB, Uppsala, Sweden) after measuring kinetics of various concentrations.

For the next series, the target named is T3, VEGF121 (Homo sapiens, UniProt P15692).
T3 sequence (P15692 27-147 isoform P15692-9): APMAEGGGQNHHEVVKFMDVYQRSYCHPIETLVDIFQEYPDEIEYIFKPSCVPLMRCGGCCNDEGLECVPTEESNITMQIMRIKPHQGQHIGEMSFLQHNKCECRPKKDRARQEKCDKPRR
The experiment in a line: BIAcore X (SPR) affinity for VEGF. The following applies: VEGF121 on CM5 chip; for kd: PBS pH 7.4; for kon: PBS pH 7.4, read-out: ka. It counts as binding. The procedure: To investigate whether the activity is maintained where Aptamer-Like Peptides specifically binding to VEGF (Vascular endothelial growth factor), i.e., L-Aptide1VEGF are converted into D- and Retro inverso (RI)-form, their affinity to a target was measured. Firstly, 3 peptides, L-Aptide1VEGF ([…], all L-amino acids, SEQ ID NO:23), D-Aptide1VEGF ([…], all D-amino acids, SEQ ID NO:23) and RI-Aptide1VEGF ([…], all D-amino acids), were synthesized by Anigen Inc. (Korea). Their affinity for a target was determined using BIAcore X (Biacore AB, Uppsala, Sweden). VEGF121 of 3000 RU was immobilized on CM5 chip (Biacore). A PBS (pH 7.4) was used as a running buffer, a flow rate was 30 μl/min, and the affinity was determined with BIAevaluation software (Biacore AB, Uppsala, Sweden) after measuring kinetics of various concentrations.
Background: SPR reads the build-up and loss of mass on a sensor chip optically.

The target of a further series is T4, VEGF (Homo sapiens, UniProt P15692).
T4 construct: purchased R&D Systems
T4 sequence (P15692 27-191 isoform P15692-4): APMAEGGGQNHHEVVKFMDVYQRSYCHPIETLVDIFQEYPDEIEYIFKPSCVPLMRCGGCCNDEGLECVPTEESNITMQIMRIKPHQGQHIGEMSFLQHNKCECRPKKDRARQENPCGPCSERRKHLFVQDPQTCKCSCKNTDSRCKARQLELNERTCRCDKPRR
The experiment in a line: Inhibition of VEGF activity (HUVEC proliferation assay). The series is classed as cell-based. The following applies: VEGF165, 72 hours. The procedure:
HUVECs (Human Umbilical Vein Endothelial Cells, ATCC) were starved in M199 medium (Gibco) supplemented with 1% FBS, and then they were attached to a 96-well plate at 5000 cell/well. After 12 hours, the cells were treated with medium containing both various concentrations of L-Aptide1VEGF and D-Aptide1VEGF, and VEGF165 (R&D Systems). After 72 hours, the growth inhibition rate of HUVECs by the L-AptideVEGF and D-AptideVEGF was determined using EZ-cytox cell viability assay kit (Daeil Labservice, Korea).

Series [2] concerns the target T5, fibronectin EDB (UniProt P02751 1266-1356, limits assumed, biotin (site not stated)).
T5 construct: domain: EDB; Biotin-EDB, 2000 RU, immobilised on a streptavidin SA chip; also called Biotin-EDB; fibronectin extra domain B (ED-B)
As to the kind of experiment: SPR, BIAcore X; biotin-EDB on SA chip, peptide as analyte. The procedure: as §2, with “(Biacore).” for “(Biacore). A PBS (pH 7.4) was used as a running buffer, a flow rate was 30 μl/min, and the affinity was determined with BIAevaluation software (Biacore AB, Uppsala, Sweden) after measuring kinetics of various concentrations.”

Where a SMILES comes first, the peptide text is derived from it. Where no end group is shown, it is not given here. [ ]: non-standard residue; d: D form.

T5 sequence (P02751 1266-1356 limits assumed): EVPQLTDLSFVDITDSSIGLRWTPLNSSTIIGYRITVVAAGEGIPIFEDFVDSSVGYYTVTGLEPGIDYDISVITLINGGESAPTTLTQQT

Usually Kd stands for the constant that tells how readily two partners part at equilibrium. `CC[C@@H](C)[C@@H](NC(=O)CNC(=O)[C@@H](CCCCN)NC(=O)[C@@H](Cc1c[nH]c2ccccc12)NC(=O)[C@H](NC(=O)[C@@H](Cc1c[nH]c2ccccc12)NC(=O)[C@@H](CCCCN)NC(=O)CNC(=O)[C@@H](CC(N)=O)NC(=O)[C@@H](CCC(=O)O)NC(=O)[C@@H](Cc1c[nH]c2ccccc12)NC(=O)[C@H](NC(=O)[C@@H](Cc1c[nH]c2ccccc12)NC(=O)[C@@H](CO)NC(=O)CNC(=O)[C@H](NC(=O)[C@@H](C)NC(=O)[C@@H](CO)NC(=O)[C@@H](CO)NC(=O)[C@@H](CS)NC(=O)[C@H](N)Cc1c[nH]cn1)C(C)C)[C@H](C)O)[C@H](C)O)C(=O)N[C@@H](C(=O)N[C@H](CCCNC(=N)N)C(=O)N[C@H](CC(C)C)C(=O)N[C@H](CCC(=O)O)C(=O)N[C@H](CCC(N)=O)C(=O)O)[C@H](C)CC` [D-Aptide1EDB] (H-[dH][dC][dS][dS][dA][dV]G[dS][dW][dT][dW][dE][dN]G[dK][dW][dT][dW][dK]G[dI][dI][dR][dL][dE][dQ]-OH; N-terminus and C-terminus assumed): on α-chymotrypsin, the “time to degradation by protease” value was > 360 min. Further, the “time to degradation by protease” value in the series on trypsin is recorded as > 360 min. Further, at fibronectin EDB [1], the Kd was found to be 58 nM, the “koff (dissociation rate constant)” value came to 0.0009 s⁻¹ and the kon came out at 15000 M⁻¹ s⁻¹.
With `C[C@H](O)[C@@H](NC(=O)[C@@H](Cc1c[nH]c2ccccc12)NC(=O)[C@@H](CCCCN)NC(=O)CNC(=O)[C@@H](CC(N)=O)NC(=O)[C@@H](CCC(=O)O)NC(=O)[C@@H](Cc1c[nH]c2ccccc12)NC(=O)[C@H](NC(=O)[C@@H](Cc1c[nH]c2ccccc12)NC(=O)[C@@H](CO)NC(=O)CNC(=O)[C@@H](CCC(N)=O)NC(=O)[C@@H](Cc1ccccc1)NC(=O)[C@@H](Cc1ccccc1)NC(=O)[C@@H](CC(N)=O)NC(=O)[C@@H](C)NC(=O)[C@H](N)Cc1c[nH]cn1)[C@H](C)O)C(=O)N[C@H](Cc1c[nH]c2ccccc12)C(=O)N[C@H](CCCCN)C(=O)NCC(=O)N[C@H](Cc1c[nH]c2ccccc12)C(=O)N[C@H](CCCCN)C(=O)N[C@H](Cc1ccc(O)cc1)C(=O)N[C@H](CC(N)=O)C(=O)N[C@H](CCC(N)=O)C(=O)N[C@H](CO)C(=O)O` [D-Aptide1VEGF] (H-[dH][dA][dN][dF][dF][dQ]G[dS][dW][dT][dW][dE][dN]G[dK][dW][dT][dW][dK]G[dW][dK][dY][dN][dQ][dS]-OH; N-terminus and C-terminus assumed), on VEGF121, the kd came to 0.0066 s⁻¹ and the kon was 130000 M⁻¹ s⁻¹. In addition, the Kd on VEGF121 (PBS pH 7.4, read-out: Kd) came to 50 nM. In addition, at VEGF (at 10 μM, D-form versus L-form), the “inhibition of VEGF activity” value is listed as “more inhibited VEGF activity than L-form”. In addition, at VEGF (at 20 μM), the “inhibition of VEGF activity” value is given as “completely inhibited VEGF activity”.
On to `CC[C@H](C)[C@H](NC(=O)CNC(=O)[C@H](CCCCN)NC(=O)[C@H](Cc1c[nH]c2ccccc12)NC(=O)[C@@H](NC(=O)[C@H](Cc1c[nH]c2ccccc12)NC(=O)[C@H](CCCCN)NC(=O)CNC(=O)[C@H](CC(N)=O)NC(=O)[C@H](CCC(=O)O)NC(=O)[C@H](Cc1c[nH]c2ccccc12)NC(=O)[C@@H](NC(=O)[C@H](Cc1c[nH]c2ccccc12)NC(=O)[C@H](CO)NC(=O)CNC(=O)[C@@H](NC(=O)[C@H](C)NC(=O)[C@H](CO)NC(=O)[C@H](CO)NC(=O)[C@H](CS)NC(=O)[C@@H](N)Cc1c[nH]cn1)C(C)C)[C@@H](C)O)[C@@H](C)O)C(=O)N[C@H](C(=O)N[C@@H](CCCNC(=N)N)C(=O)N[C@@H](CC(C)C)C(=O)N[C@@H](CCC(=O)O)C(=O)N[C@@H](CCC(N)=O)C(=O)O)[C@@H](C)CC` [L-Aptide1EDB] (H-HCSSAVGSWTWENGKWTWKGIIRLEQ-OH; N-terminus and C-terminus assumed), for which the “time to degradation by protease” value on α-chymotrypsin was ≤ 30 min. Moreover, in the series with trypsin, the “time to degradation by protease” value was ≤ 30 min. Also, at fibronectin EDB [1], the Kd amounted to 65 nM, the “koff (dissociation rate constant)” value stood at 0.00095 s⁻¹ and the kon worked out at 10000 M⁻¹ s⁻¹.
As for `C[C@H](NC(=O)[C@@H](N)Cc1c[nH]cn1)C(=O)N[C@@H](CC(N)=O)C(=O)N[C@@H](Cc1ccccc1)C(=O)N[C@@H](Cc1ccccc1)C(=O)N[C@@H](CCC(N)=O)C(=O)NCC(=O)N[C@@H](CO)C(=O)N[C@@H](Cc1c[nH]c2ccccc12)C(=O)N[C@H](C(=O)N[C@@H](Cc1c[nH]c2ccccc12)C(=O)N[C@@H](CCC(=O)O)C(=O)N[C@@H](CC(N)=O)C(=O)NCC(=O)N[C@@H](CCCCN)C(=O)N[C@@H](Cc1c[nH]c2ccccc12)C(=O)N[C@H](C(=O)N[C@@H](Cc1c[nH]c2ccccc12)C(=O)N[C@@H](CCCCN)C(=O)NCC(=O)N[C@@H](Cc1c[nH]c2ccccc12)C(=O)N[C@@H](CCCCN)C(=O)N[C@@H](Cc1ccc(O)cc1)C(=O)N[C@@H](CC(N)=O)C(=O)N[C@@H](CCC(N)=O)C(=O)N[C@@H](CO)C(=O)O)[C@@H](C)O)[C@@H](C)O` [L-Aptide1VEGF] (H-HANFFQGSWTWENGKWTWKGWKYNQS-OH; N-terminus and C-terminus assumed), on VEGF121, the kd came out at 0.01 s⁻¹ and the kon was 350000 M⁻¹ s⁻¹. Also, the “inhibition of VEGF activity” value against VEGF (at 20 μM) is listed as “completely inhibited VEGF activity”.

B1: L-Aptide1EDB (designed binder)
peptide: HCSSAVGSWTWENGKWTWKGIIRLEQ
notes: Synthetic 26-mer, all L-amino acids; also called Aptide1EDB (L-form)
By koff is commonly meant the first-order rate constant of dissociation. A low value points to a long-lived complex. B1 yielded a koff with fibronectin EDB [2] of 0.00095 s⁻¹.

B2: RI-Aptide1EDB (designed binder)
peptide: [dQ][dE][dL][dR][dI][dI]G[dK][dW][dT][dW][dK]G[dN][dE][dW][dT][dW][dS]G[dV][dA][dS][dS][dC][dH]
B2: the off-rate (koff) with fibronectin EDB [2] came to 0.0011 s⁻¹.

B3: D-Aptide1EDB (designed binder)
peptide: [dH][dC][dS][dS][dA][dV]G[dS][dW][dT][dW][dE][dN]G[dK][dW][dT][dW][dK]G[dI][dI][dR][dL][dE][dQ]
The molecule B3 yielded a dissociation rate constant (koff) in the series with fibronectin EDB [2] of 0.0009 s⁻¹.

Source of the values: patent US20140296479A1, “D-APTIDE AND RETRO-INVERSO APTIDE WITH MAINTAINED TARGET AFFINITY AND IMPROVED STABILITY” (GWANGJU INSTITUTE OF SCIENCE AND TECHNOLOGY, priority 2011, published 2014).
